The values that follow come from patent US12552783B2, “Modulators of proteolysis and associated methods of use” (Arvinas Operations, Inc., priority 2018, dated 2026).

Each structure is given as a SMILES string. Where only a bound is given, the exact number is not on record here.

This experiment deals with KRas (Homo sapiens, UniProt P01116, G12C). Nature of the experiment: KRas degradation in NCI-H2030 cells by Western blot, normalized to GAPDH (data of Table 14). The settings on record: for Dmax: NCI-H2030. It is filed as cell-based. More on the design: host or cells: NCI-H2030. The essentials:
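Degradation of endogenous homozygous G12C KRas is measured by immunoblot after serum starvation and compound exposure at three final concentrations (0.3, 1 and 3 μM). VHL-recruiting compounds are incubated 24 h and all others 72 h. Percent loss is calculated from GAPDH-normalized KRas relative to vehicle.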
A general note: Immunoblotting shows a protein as a band on a membrane.

As a reminder, the Dmax is the largest share of the target that was removed. `C=CC(=O)N1CCN(c2nc(NCCC(=O)N(C)CCOCCOCCNC(=O)c3ccc(NC(=O)[C@@H]4N[C@@H](CC(C)(C)C)[C@](C#N)(c5ccc(Cl)cc5F)[C@H]4c4cccc(Cl)c4F)c(OC)c3)nc3c(F)c(-c4cc(O)cc5ccccc45)c(Cl)cc23)CC1` [compound 302, (2R,3S,4R,5S)-N-(4-((2-(2-(2-(3-((4-(4-acryloylpiperazin-1-yl)-6-chloro-8-fluoro-7-(3-hydroxynaphthalen-1-yl)quinazolin-2-yl)amino)-N-methylpropanamido)ethoxy)eth-oxy)ethyl)carbamoyl)-2-methoxyphenyl)-3-(3-chloro-2-fluorophenyl)-4-(4-chloro-2-fluorophenyl)-4-cyano-5-neopentylpyrrolidine-2-carboxamide] had a Dmax not above 35%. The “Percent Degradation at Indicated Concentration (μM)” value (H2030, 0.3 μM) is “C (Percent Degradation: C ≤ 35)”. For the same compound, the “Percent Degradation at Indicated Concentration (μM)” value (H2030, 1 μM) is “C (Percent Degradation: C ≤ 35)”. In addition, the “Percent Degradation at Indicated Concentration (μM)” value (H2030, 3 μM) is recorded as “C (Percent Degradation: C ≤ 35)”.
As for `C=CC(=O)N1CCN(c2nc(O[C@H](C)CN3CCC(OCCOCCOCCOCCNc4cccc5c4C(=O)N(C4CCC(=O)NC4=O)C5=O)CC3)nc3c2CCN(c2cc(O)cc4ccccc24)C3)CC1` (stereo partly shown) [compound 414], the “Percent Degradation at Indicated Concentration (μM)” value (H2030 cells, 0.3 μM) is listed as “C (Percent Degradation: C ≤ 35)”; the “Percent Degradation at Indicated Concentration (μM)” value (H2030 cells, 1 μM) was “C (Percent Degradation: C ≤ 35)”; the “Percent Degradation at Indicated Concentration (μM)” value (H2030 cells, 3 μM) was “C (Percent Degradation: C ≤ 35)”.
Regarding `C=CC(=O)N1CCN(c2nc(O[C@H](C)CN3CCC(OCCOCCOCCOc4ccc5c(c4)C(=O)N(C4CCC(=O)NC4=O)C5=O)CC3)nc3c2CCN(c2cc(O)cc4ccccc24)C3)CC1` (stereo partly drawn) [compound 418, 5-(2-(2-(2-((1-((R)-2-((4-(4-acryloylpiperazin-1-yl)-7-(3-hydroxynaphthalen-1-yl)-5,6,7,8-tetrahydropyrido[3,4-d]pyrimidin-2-yl)oxy)propyl)piperidin-4-yl)oxy)ethoxy)ethoxy)ethoxy)-2-(2,6-dioxopiperidin-3-yl)isoindoline-1,3-dione], the “Percent Degradation at Indicated Concentration (μM)” value by setting is: (H2030 cells, 0.3 μM) “C (Percent Degradation: C ≤ 35)”; (H2030 cells, 1 μM) “C (Percent Degradation: C ≤ 35)”; (H2030 cells, 3 μM) “C (Percent Degradation: C ≤ 35)”.
Turning to `CCC(=O)N1CCN(c2nc(NCCC(=O)N(C)CCOCCOCCOc3ccc4c(c3)CN(C3CCC(=O)NC3=O)C4=O)nc3c(F)c(-c4cc(O)cc5ccccc45)c(Cl)cc23)CC1` (stereo not shown) [compound 52, 3-((6-chloro-8-fluoro-7-(3-hydroxynaphthalen-1-yl)-4-(4-propionylpiperazin-1-yl)quinazolin-2-yl)amino)-N-(2-(2-(2-((2-(2,6-dioxopiperidin-3-yl)-1-oxoisoindolin-5-yl)oxy)ethoxy)ethoxy)ethyl)-N-methylpropanamide], the “Percent Degradation at Indicated Concentration (μM): 0.3” value (H2030 cells, 0.3 μM) is “C (C ≤ 35)”. Moreover, under “H2030 cells, 1 μM”, the “Percent Degradation at Indicated Concentration (μM): 1” value is on record as “C (C ≤ 35)”. Further, the “Percent Degradation at Indicated Concentration (μM): 3” value (H2030 cells, 3 μM) is recorded as “C (C ≤ 35)”. Where the note is “H2030 cells”, this compound had a Dmax not above 35%.
Turning to `Cc1ncsc1-c1ccc([C@H](C)NC(=O)[C@@H]2C[C@@H](O)CN2C(=O)[C@@H](NC(=O)COCCN(C)C(=O)CCNc2nc(N3CCN(C(=O)C(O)O)CC3)c3cc(Cl)c(-c4c(O)cccc4F)c(F)c3n2)C(C)(C)C)cc1` (atropisomer, axis not shown) [compound 235, (2S,4R)-1-((S)-2-(2-(2-(3-(((R)-6-chloro-4-(4-(2,2-dihydroxyacetyl)piperazin-1-yl)-8-fluoro-7-(2-fluoro-6-hydroxyphenyl)quinazolin-2-yl)amino)-N-methylpropanamido)ethoxy)acetamido)-3,3-dimethylbutanoyl)-4-hydroxy-N-((S)-1-(4-(4-methylthiazol-5-yl)phenyl)ethyl)pyrrolidine-2-carboxamide], the “Percent Degradation at Indicated Concentration (μM)” value (H2030 cells, 0.3 μM) is recorded as “C (Percent Degradation: C ≤ 35)”; the “Percent Degradation at Indicated Concentration (μM)” value (H2030 cells, 1 μM) is reported as “C (Percent Degradation: C ≤ 35)”; the “Percent Degradation at Indicated Concentration (μM)” value (H2030 cells, 3 μM) is “C (Percent Degradation: C ≤ 35)”.
As for `C=CC(=O)N1CCN(c2nc(NCCC(=O)N(C)CCOCCNc3cccc4c3C(=O)N(C3CCC(=O)NC3=O)C4=O)nc3c(F)c(-c4c(O)cccc4F)c(Cl)cc23)CC1` [compound 109, 3-(((S)-4-(4-acryloylpiperazin-1-yl)-6-chloro-8-fluoro-7-(2-fluoro-6-hydroxyphenyl)quinazolin-2-yl)amino)-N-(2-(2-((2-(2,6-dioxopiperidin-3-yl)-1,3-dioxoisoindolin-4-yl)amino)ethoxy)ethyl)-N-methylpropanamide], the Dmax was not above 35%. Moreover, the “Percent Degradation at Indicated Concentration (μM)” value (H2030, 0.3 μM) is given as “C (Percent Degradation: C ≤ 35)”. Further, the “Percent Degradation at Indicated Concentration (μM)” value (H2030, 1 μM) is “C (Percent Degradation: C ≤ 35)”. In addition, for the setting “H2030, 3 μM”, the “Percent Degradation at Indicated Concentration (μM)” value is “C (Percent Degradation: C ≤ 35)”.
Consider `C=CC(=O)N1CCN(c2nc(O[C@H](C)CN3CCC(OCCOCCOc4ccc5c(c4)CN(C4CCC(=O)NC4=O)C5=O)CC3)nc3c2CCN(c2cc(O)cc4ccccc24)C3)CC1` (stereo partly drawn) [compound 422, 3-(5-(2-(2-((1-((R)-2-((4-(4-acryloylpiperazin-1-yl)-7-(3-hydroxynaphthalen-1-yl)-5,6,7 ,8-tetrahydropyrido[3,4-d]pyrimidin-2-yl)oxy)propyl)piperidin-4-yl)oxy)ethoxy)ethoxy)-1-oxoisoindolin-2-yl)piperidine-2,6-dione], for which the “Percent Degradation at Indicated Concentration (μM)” value reads like this: (H2030 cells, 0.3 μM) “C (Percent Degradation: C ≤ 35)”; (H2030 cells, 1 μM) “C (Percent Degradation: C ≤ 35)”; (H2030 cells, 3 μM) “C (Percent Degradation: C ≤ 35)”.
`C=CC(=O)N1CCN(c2nc(NCCC(=O)N(C)CCOCC(=O)N[C@H](C(=O)N3C[C@H](O)C[C@H]3C(=O)N[C@@H](C)c3ccc(-c4scnc4C)cc3)C(C)(C)C)nc3c(F)c(-c4c(O)cccc4F)c(Cl)cc23)CC1` (atropisomer, axis not shown) [compound 206, (2S,4R)-1-((S)-2-(2-(2-(3-(((R)-4-(4-acryloylpiperazin-1-yl)-6-chloro-8-fluoro-7-(2-fluoro-6-hydroxyphenyl)quinazolin-2-yl)amino)-N-methylpropanamido)ethoxy)acetamido)-3,3-dimethylbutanoyl)-4-hydroxy-N-((S)-1-(4-(4-methylthiazol-5-yl)phenyl)ethyl)pyrrolidine-2-carboxamide]: the maximal degradation (Dmax) was not above 35%. Besides, the “Percent Degradation at Indicated Concentration (μM)” value (H2030, 0.3 μM) is listed as “C (Percent Degradation: C ≤ 35)”. In addition, the “Percent Degradation at Indicated Concentration (μM)” value (H2030, 1 μM) was “C (Percent Degradation: C ≤ 35)”. Besides, the “Percent Degradation at Indicated Concentration (μM)” value (H2030, 3 μM) is on record as “C (Percent Degradation: C ≤ 35)”.
